Reference: the METLIN SMRT retention time set (Domingo-Almenara et al. 2019)

Assay: gradient 5% acetonitrile 3 min, to 50% in 2 min, to 85% in 15 min, held 3 min, 100 µL/min
Conditions: column: Zorbax Extend-C18 2.1 x 50 mm; eluents: water / acetonitrile, 0.1% formic acid
Outline: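 Mixtures of ~100 pure standards were chromatographed on a Zorbax Extend-C18 column (2.1 × 50 mm, 1.8 μm) at 100 μL/min using water and acetonitrile, each with 0.1% formic acid. Detection used a quadrupole time-of-flight mass spectrometer in positive and negative ionization mode, and data collection spanned 3 months. Retention time was obtained from adduct peaks picked computationally and each checked manually.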

SMILES	RP-LC retention time [s]
CC(=O)c1cccc(NC(=O)c2cc(Cl)ccc2Cl)c1	848
O=C(Nc1nc(-c2ccc(Br)s2)cs1)c1ccc([N+](=O)[O-])s1	1120
Cc1ccc(-c2noc(-c3cccc(S(=O)(=O)NCCN4CCCCCC4)c3)n2)cc1	794
CCC1=C(c2ccc(C)cc2)S(=O)(=O)N=C1N1CCC(C(=O)N(C)Cc2ccco2)CC1	894
Cc1ccc(NC(=O)CCCN2C(=O)COc3ccc(C)cc32)c(C)c1	929
CCOC(=O)Nc1ccc2nc(-c3cscn3)[nH]c2c1	651
Cc1nc(-c2ccc(F)cc2)sc1C(=O)N(C)C	767
CCNc1cc(N2CCC(CCC(=O)NCc3cccc(Cl)c3)CC2)ncn1	678
COc1ccc2c(c1)C1(CCN(C(=O)Nc3ccccc3F)C1)C(=O)N2 (stereo not given)	701
CCOC(=O)c1c(C)[nH]c(CCC(=O)NC(C)CC)c1C (stereo not given)	762
CCOC(=O)CSc1nnc(NC(=O)c2ccc(S(=O)(=O)N(C)C)cc2)s1	772
Cc1ccccc1CNC(=O)CS(=O)Cc1cnn(-c2ccccc2)c1-n1cccc1 (stereo not given)	875
COc1ccc(CN(C(=O)COc2ccc(Cl)cc2C)C2CCS(=O)(=O)C2)cc1OC (stereo not given)	938
Cc1nc(-c2cccc(NC(=O)c3ccc(-n4ccnc4C)nn3)c2)cs1	581
CCCN1CCN(C(=O)c2ccc(CS(=O)c3ccccc3Cl)o2)CC1 (stereo not given)	593
CCC(=O)N(C)CCc1noc(-c2ccc(C(=O)NCCN(C)C)cc2)n1	579
Cc1cc(C(=O)N2CCC3(CCC3O)CC2)c(C)o1 (stereo not given)	683
O=C(Cc1nnc(-c2ccccc2)o1)NCc1ccccn1	577
Cc1cc(Nc2nc(C(=O)NCCCN3CCOCC3)cc3occc23)ccc1Br	724
C[C@H]1CN(C(=O)c2c[nH]c3ccccc23)C[C@@H]1c1nc(-c2cccnc2)no1	711
O=C(c1cc2occc2c(Nc2ccc(Cl)cc2)n1)N1CCN(c2ccccn2)CC1	713
O=C(Nc1cccc(F)c1)c1nnc(CCCC(=O)N2CCN(c3ccccn3)CC2)s1	646
O=C1C=C(N2CCNCC2)C(=O)c2c(O)ccc(O)c21	600

SMILES	RP-LC retention time [s]
O=C(Nc1cccn2c(C3CCC3)nnc12)C1COc2ccccc2O1 (stereo not given)	837
COC(=O)N(C)c1c(N)nc(-c2nn(Cc3ccccc3F)c3ncccc23)nc1N	729
Cc1cc(OCC(=O)N2CCCCC2)nc(-c2ccc(Cl)cc2)n1	790
Cc1cc(-c2nnc(C3CCC3)o2)c(C)n1CC(=O)Nc1cccc(F)c1	900
COC(=O)c1ccccc1S(=O)(=O)Nc1ccc2c(c1)CCC(=O)N2	697
C=CCN(Cc1nc(-c2cccc(C)c2)no1)C(=O)Nc1ccccc1OC	1120
Cc1cc2c(=O)n(CC(=O)NCc3ccccc3Cl)c3cccnc3n2n1	729
CCN(CC)S(=O)(=O)c1cc(-c2nnc(-c3ccc(OC)cc3)o2)ccc1C	1030
CC(C)CNC(=O)C1CCN(C(=O)Nc2ccc(NC(=O)Nc3ccccc3)cc2)CC1	812
CN(C)S(=O)(=O)N1CCC(n2c(Cc3ccccc3)nn(C)c2=O)CC1	748
O=C(NCc1cccnc1)c1cc(-c2ccc3c(c2)OCO3)nc2ccccc12	665
Cc1ccc2oc(=O)c3cc(C(=O)N4CCN(c5ccccn5)CC4)sc3c2c1	664
CCc1cccc(NC(=O)C2CCCN(S(=O)(=O)c3c[nH]c(C(=O)N4CCCC4)c3)C2)c1 (stereo not given)	877
CC(C)n1c(SCC(=O)N(C)C)nnc1-c1ccc2c(c1)OCCCO2	691
COC(=O)Nc1ccc(CC(=O)NCC(F)(F)F)cc1	639
Cc1ccc(CNC(=O)c2c(C)oc3nc(C)nc(N4CCOCC4)c23)cc1	787
Cc1ccc(C(=O)COc2ccc(N3C(=O)C4CCC(C)CC4C3=O)cc2)cc1C (stereo not given)	1120
Cc1ccc(CN2CCn3nnc(CCC(=O)N4CCCC4)c3C2)s1	651
CC(C)(C)NC(=O)N1CCCC(c2nc(CCOCC3CCOCC3)no2)C1 (stereo not given)	728
CC1CCN(C(=O)C2CC(=O)N(CCc3c[nH]c4ccc(F)cc34)C2)CC1 (stereo not given)	797
Cc1csc(-c2cc(S(=O)(=O)NCCCN3CCCc4ccccc43)c(C)s2)n1	1420
CCOc1ccc(S(=O)(=O)NCc2ccc3c(c2)CCN3C(=O)c2ccccc2)cc1	953

Second part, the compound after the results:

RP-LC retention time [s]	SMILES
657	O=C(Nc1nnc2n1CCS2)c1cc(Br)ccc1Cl
668	Cc1ccc(CNC(=O)C2(C)CN(S(C)(=O)=O)CC(=O)N2Cc2ccc(N(C)C)cc2)cc1 (stereo not given)
1010	CCCOc1cccc(C(=O)N(Cc2ccc(Br)o2)C2CCS(=O)(=O)C2)c1 (stereo not given)
758	COc1cccc(C(=O)NC(NC(=O)c2cccc(OC)c2)c2ccc3c(c2)OCO3)c1
574	O=C(CCc1ccc2c(c1)CNCCO2)NCC1CC1
723	Cc1ccc(C)c(CNC(=O)C2CCCN(c3cnn(C)c(=O)c3)C2)c1 (stereo not given)
752	Cn1c(=O)c2ccn(CC(=O)N3CCN(c4ccc(Cl)cc4)CC3)c2n(C)c1=O
976	CCc1ccccc1NC(=O)N1CCCC1c1nc(-c2ccc(OC)cc2)no1 (stereo not given)
770	CN(C)C(=O)c1csc(S(=O)(=O)N2CCC(C(=O)Nc3ccccc3F)CC2)c1
766	Cc1ccc(Sc2nccnc2N2CCCC(C(=O)NCc3ccccn3)C2)cc1 (stereo not given)
987	CCc1nnc(-c2ccc3ccn(CC(=O)N4CCN(c5cccc(Cl)c5)CC4)c3c2)o1
581	CCCCN(C)CCNC(=O)c1ccc(N2CCCC2=O)cc1
577	c1ccc(CN2CCCC(OCc3nc(-c4ccncc4)no3)C2)nc1 (stereo not given)
869	O=C(CCc1csc(NC(=O)c2cccs2)n1)Nc1ccc(F)c(Cl)c1
824	CCOC(=O)c1ccccc1NC(=O)NCC(c1cccnc1)c1cn(C)c2ccccc12 (stereo not given)
791	Cc1ccccc1NC(=O)N1CCC(n2cnc3c(Cl)cccc3c2=O)CC1
768	CC(C)NC(=O)c1nn(-c2ccccc2F)nc1CO
815	CCNC(=O)C1CCN(c2nc3ccc(-c4cccs4)nc3s2)CC1
644	CCC(C)NC(=O)c1ccc2c(c1)CC(=O)N2C (stereo not given)
1020	COc1ccccc1-c1nc(C2CC(=O)N(c3ccc(Cl)cc3)C2)no1 (stereo not given)
881	O=C(NCCc1csc(-c2ccccc2)n1)C1CCN(S(=O)(=O)c2ccccc2)CC1
621	O=C(CSc1nc2ncccc2[nH]1)NC1CCCCC1
684	CNC(=O)c1sc2nc(-c3ccccc3)c(NCCCOC)n2c1C

RP-LC retention time [s]	SMILES
888	CCCN1C(=O)COc2ccc(-c3noc(CNS(=O)(=O)c4ccccc4)n3)cc21
702	N#CCn1nc2n(c1=O)CCN(S(=O)(=O)c1cccc3cccnc13)CC2
724	O=C(CN1CCN(C(=O)Nc2ccc(Cl)cc2)CC1=O)NC1CCCCC1
652	CCCn1ccc2sc(C)c(C(=O)NCCOC)c2c1=O
860	O=C(NC(c1ccccc1)c1nnc(N2CCCC2)o1)c1ccc(Cl)cc1 (stereo not given)
1300	COc1ccccc1N1CCN(S(=O)(=O)c2cc(-c3nc(C(C)C)cs3)cs2)CC1
1230	CCc1ccc(NC(=O)c2c(O)c3cccnc3n(-c3ccc(F)cc3)c2=O)cc1
674	O=C(NCCn1c(-c2ccccc2)nc2cccnc21)Nc1ccccc1
687	Cc1sc(NC(=O)CCc2ccccc2)nc1-c1ccc2c(c1)NC(=O)C(C)O2 (stereo not given)
1050	C=CCN1C(=O)COc2ccc(-c3nc(NC(=O)C(CC)CC)sc3C)cc21
858	O=C(Nc1cccc(Cl)c1)N1CCC(n2cnc3cc(F)ccc3c2=O)CC1
1090	COc1cc(-c2nnc(-c3ccc(C)c(S(=O)(=O)N4CCCCC4)c3)o2)cc(OC)c1OC
1100	Cc1[nH]nc(-c2c(C)sc(C)c2S(=O)(=O)NCc2ccc(Cl)cc2)c1C
640	CCN(Cc1ccccc1)Cc1nc(-c2ccc(N3CCCC3)nc2)no1
739	O=C(Cc1ccc(NC(=O)c2cc(=O)c3ccccc3o2)cc1)NCc1cccs1
1110	Cc1nc(C)c(C(=O)N2CC(Oc3cccc(-c4nc(-c5ccccc5)no4)c3)C2)s1
605	CCn1nccc1C(=O)NCC1Cn2cccc2C(=O)N1C (stereo not given)
717	COc1ccccc1CNC(=O)C1CCN(c2cc(N3CCSCC3)ncn2)CC1
852	COc1ccc(-c2nc(NC(=O)CSc3ccccc3)sc2CCC(=O)O)cc1
742	COc1ccc(NC(=O)N2CCC3(CC2)NC(=O)c2cc(C)ccc2N3C)cc1
725	COc1cccc(CC(=O)Nc2cnn(C)c(=O)c2N2CCOCC2)c1
918	Cn1cccc1C(=O)C(=O)NCc1cccc(Br)c1
